Laboratory results reported in a melting point compilation (Tetko et al.; mined from patent text by program, amines drawn as free bases though some values may be those of a salt).

SMILES	melting point
CO[C@]1(c2cccc(OCc3ccc4c(ccc(=O)n4C)c3)c2)CCO[C@@H](C)C1	88 to 90 °C
COC(=O)C[C@H](O)CC(=O)C=Cc1c(-c2ccc(F)cc2)c(-c2ccccc2)c(C(=O)Nc2cccc(S(N)(=O)=O)c2)n1C(C)C	89 to 91 °C
ON=Cc1c(O)ccc2c1OCO2	161 to 162 °C
O=C(O)c1ccc(C(=O)O)c2c(Br)cccc12	288 to 290 °C
CCc1ccc(-c2ccc(C(C)=S)cc2)cc1	84 to 86 °C
COC(=O)CC(O)CC(O)C=Cc1c2c(nn1-c1ccc(F)cc1)C(Cc1ccc(-c3ccccc3)cc1)CCC2 (racemic)	118 to 119 °C
N#CC(Cc1c[nH]cn1)(c1ccccc1)c1ccc(Cl)cc1 (configuration not stated)	135 to 136 °C
CN1C(=O)N(c2ccc(C#N)c(C(F)(F)F)c2)C(=O)C1(C)C	158 °C
CON=C(Cn1c(=O)ccc2ccccc21)c1ccc(N2CCCC2)cc1	169 to 171 °C
CC(=O)OC1CN=C(C)NC1 (configuration not stated)	141 to 146 °C
CN(C(=O)C(F)(F)F)c1ccc(C2=NC[C@@H](OC(=O)Nc3ccccc3)[C@H](c3ccccc3)O2)cc1 (racemic)	160 °C
O=[N+]([O-])c1ccccc1OC1OC(COP(=O)(O)O)C(O)C(O)C1O (configuration not stated)	181 to 183 °C
CCc1cccc(C)c1CNc1nc(C(=O)O)cc2c1nc(C)n2C	233 to 236 °C
COc1ccc(Oc2ccc(OC(=O)NC(C)CCCC(C)C)cc2)cc1 (configuration not stated)	64 to 65 °C
O=C(Nc1ccc(S(=O)(=O)c2ccncc2)cc1)C(O)(C(F)(F)F)C(F)(F)F	235 to 237 °C
COc1ccc2c(c1)CCC1(C)C2=CCC2(C)C(O)CCC12 (configuration not stated)	168 °C
O=C(C(=O)N1CCC(Oc2ccc(F)cc2)CC1)c1c[nH]c2ccccc12	205 to 207 °C
CCC(c1ccc(Nc2ccccc2)c2ccccc12)c1ccc(Nc2ccccc2)c2ccccc12	115 °C
COc1ccc2c(N(C)CCc3ccccn3)noc2c1	152 to 153 °C
CN1C(=NC(=O)c2ccc(F)cc2)C(C(F)(F)F)(C(F)(F)F)NC1c1ccc(F)cc1 (configuration not stated)	132 to 133 °C
COC(=O)c1cc2c3ccccc3n(C)c2s1	134 °C
CC(C)(C)NC(=O)OC1SCN(c2ccccc2)C1=O (configuration not stated)	146 to 148 °C
O=C(NOC(=O)c1ccccc1)OCc1ccccc1	112 °C
CCc1noc(-c2cn(-c3cccc(OCc4ccc(Cl)cc4)c3)cn2)n1	137 to 138 °C

SMILES	melting point
COc1cc2[nH]c(N3CCCN(C(=O)N4CCOCC4)CC3)nc(=O)c2c(C)c1OC	237 to 238 °C
Cc1nc(NC(=O)c2cnn3c(C(F)(F)F)cc(-c4ccc(C(F)(F)F)cc4)nc23)sc1S(=O)(=O)NCCO	166 °C
CSC1C(=O)Nc2c(C(=O)c3ccccc3F)cccc21 (configuration not stated)	147 to 148 °C
CC(C)CCc1c(-c2ccc(S(C)(=O)=O)c(F)c2)cnn(-c2ccc(F)c(F)c2)c1=O	119 to 121 °C
O=S(=O)(CCl)c1ccc(-n2cnnn2)cc1	168 to 172 °C
CCCCNC(=O)OCC(=O)O	83 to 84 °C
Cc1snnc1SCC1=C(C(=O)OC(C)(C)C)N2C(=O)[C@@H](NC(=O)Cc3cccs3)[C@H]2SC1	155 to 157 °C
CS(=O)(=O)OC[C@H]1CN(c2ccc(C3=CCSCC3)c(F)c2)C(=O)O1	138 to 141 °C
CCCn1nc(C(C)C)c(C(=O)O)c1Cc1ccc(-c2ccccc2-c2nnn(C(c3ccccc3)(c3ccccc3)c3ccccc3)n2)cc1	136 to 139 °C
COc1ccc(-c2cc3cc(F)c(F)cc3[nH]2)cc1NC(=S)Nc1cccnc1	128 to 130 °C
O=[N+]([O-])c1ccc(OC23CC4CC(CC(C4)C2)C3)cc1	132 to 134 °C
CC[C@H](C)[C@H](N)C(=O)N[C@@H](Cc1ccc(OC(C)(C)C)cc1)C(=O)N[C@@H](C)C(=O)NCc1c(OC)ccc2c1Oc1c(ccc(OC)c1CC(=O)O)C2(C)C	146 to 149 °C
CCC(=O)Nc1nc(N[C@H]2c3cc(C)ccc3C[C@@H]2C)nc(C(F)F)n1	66 °C
O=C(Nc1cc(Cc2n[nH]c(=O)c3ccccc23)ccc1N1CCOCC1)c1cccc(CCl)c1	117 to 122 °C
CNc1ncc2c(=O)n(C)c(=O)n(C)c2n1	260 °C
CCc1nc2c(C)cc(C)nc2n1Cc1ccc(C(Cc2nnn[nH]2)c2ccc(OC)cc2)cc1 (configuration not stated)	96 to 99 °C
CC(=O)Oc1ccc(Cn2c(-c3ccccc3)nc(Cl)c2CC(=O)O)cc1C	200 to 203 °C
O=[N+]([O-])c1ccc(Oc2ccc(C(F)(F)F)cc2Cl)cc1CCl	55 to 60 °C
NC(=O)N(c1ccccc1-c1nc(C2CC2)no1)C1CN2CCC1CC2 (configuration not stated)	229 to 233 °C
CCCCCCCCCCCNC(=O)N(CC)CC	33 to 35 °C
CCC(CC)N(Cc1ccc(C(=O)OC)cc1)S(=O)(=O)c1ccc(F)cc1	78 to 80 °C
COC(=O)CN1CN(c2ccccc2)C2(CCN(Cc3cccc4ccccc34)CC2)C1=O	122 to 135 °C
C#CCCCC(=O)c1cc(C)c(O)c(C(C)(C)C)c1	63 to 64 °C
